{"source": "patent US20160113931A1", "about": "“Method of treating and/or preventing neurodegenerative diseases” (University of Macau, priority 2014, published 2016)", "key": {"SH-SY5Y cells [1]": {"test_system": "SH-SY5Y cells", "assay": "MPP+-induced LDH leakage in SH-SY5Y cells (LDH assay)", "assay_type": "cell-based, human", "conditions": "2 h pre-treatment, MPP+ 36 h, MPP+ alone 209%, normalized to control", "protocol": "Cells were pre-treated with BHDPC (3, 10 and 30 μM) for 2 h and then incubated with or without 1 mM MPP^+ for further 24 h. Cell viability was measured by the MTT assay.\nCell cytotoxicity was also determined by measuring the activity of LDH released into the incubation medium when cellular membranes were damaged. Cells were seeded at 96-well plates (5×10^3 cells/well). After treatment, the released LDH activity in the medium was measured according to the instructions of the Cytotoxicity Detection Kit (Roche Applied Science, Mannheim, Germany). Absorbance at 490 nm was measured using SpectraMax M5. All values of LDH released were normalized to the control group.\nThe protective activity of BHDPC was also confirmed by the lactate dehydrogenase (LDH) assay. SH-SY5Y cells were treated with BHDPC for 2 h before exposed to MPP^+ for 36 h."}, "SH-SY5Y cells [2]": {"test_system": "SH-SY5Y cells", "assay": "Cytotoxicity of BHDPC in SH-SY5Y cells (MTT assay)", "assay_type": "cell-based, human", "conditions": "BHDPC 3 to 30 μM, 24 h", "protocol": "The human neuroblastoma SH-SY5Y cells were purchased from America Tissue Type Collection. The cells were maintained in DMEM medium supplemented with 10% fetal bovine serum and penicillin/streptomycin (100 U/mL; 100 μg/mL) in a 37° C., 5% CO2 incubator. All experiments were carried out 48 hours after the cells were seeded.\nThe percentage of surviving cells was estimated by determining the activity of mitochondrial dehydrogenases with 3(4,5-dimethylthiazol-2-yl)-2,5-diphenyltetrazolium bromide (MTT) assay. After drug treatment, cells were incubated at 37° C. for 4 h in 0.5 mg/mL MTT solution. The medium was then removed, and 100 μL of DMSO was added to each well to dissolve the violet formazan crystals. The absorbance of the samples was measured at a wavelength of 570 nm with 655 nm as a reference wavelength. All values were normalized to the control groups.\nTo evaluate the cytotoxicity of BHDPC, SH-SY5Y cells were incubated with various concentrations of BHDPC for 24 h and the cell viability was determined using MTT assay."}, "caspase 3": {"test_system": "caspase 3", "assay": "Caspase 3 activity assay in SH-SY5Y cells", "assay_type": "cell-based, human", "protocol": "After pre-treatment with 30 μM BHDPC or 0.1% DMSO (vehicle control) for 2 h, SH-SY5Y cells were incubated with or without 2 mM MPP^+ for another 36 h. (FIG. 6A) Δψm was determined by the JC-1 assay.\nAfter treatment, the activity of caspase 3 was measured using the commercially available EnzChek Caspase-3 Assay Kit (Invitrogen, USA) according to the manufacturer's protocol. Briefly, SH-SY5Y cells were lysed in lysis buffer and centrifuged at 12,500×g for 5 min. 15 μL of cell lysate was incubated with 50 μL of 2× substrate working solution at room temperature for 30 min in 96-well plates. The fluorescence intensity was then determined by a SpectraMax M5 microplate reader at an excitation wavelength of 490 nm and emission at 520 nm. The fluorescence intensity of each sample was normalized to the protein concentration of sample. All values of % caspase 3 activities were normalized to the control group.\nCaspase 3 activation plays a key role in the execution-phase of the apoptosis."}, "primary cortical neurons": {"test_system": "primary cortical neurons", "assay": "α-tubulin and MAP2 expression in primary cortical neurons", "assay_type": "cell-based, rat", "conditions": "10 and 30 μM, 14 days", "protocol": "Primary culture of cortical neurons was prepared from embryonic day 18±0.5 Sprague-Dawley rats. One day after seeding, primary cortical neurons were treated with 10 and 30 μM BHDPC for 14 days. Fourteen days following BHDPC treatment, primary cortical neurons cultured on glass coverslips (Thermo Scientific) were fixed with 4% paraformaldehyde for 15 min. Following fixation, neurons were permeabilized with 0.1% Triton X-100 in Tris-buffered saline for 7 min, and blocked with 4% bovine serum albumin and 2% goat serum for 1 h. α-tubulin and MAP2 were incubated at 1:400 dilution for 1 h at room temperature and overnight at 4° C. respectively. Following primary antibody incubation, neurons were incubated with Alexa Flour 488 or 568 secondary antibodies (anti-rabbit or anti-mouse) at 1:400 dilution for 1 h at room temperature. The coverslips were then mounted on microscopic slides (Thermo Scientific) using ProLong® Gold Antifade Mountant (Molecular Probes). Neurons were imaged using the LSM 780 laser scanning microscope (Carl Zeiss). Fluorescence intensity was measured using Image J."}, "cerebellar tissue slices": {"test_system": "cerebellar tissue slices", "assay": "MPP+-induced cell death in cerebellar tissue slice culture (PI and NeuN staining)", "assay_type": "cell-based, rat", "conditions": "30 μM, MPP+ 3 days", "protocol": "Cerebellar tissue slice were treated with 30 μM BHDPC with or without MPP^+ for 72 h and then were stained with PI.\nFollowing decapitation, brains of post-natal Day 9-10 SD rat were dissected out and sagittal slices (300 μm) of the cerebellum were immediately cut using a McIlwain tissue chopper, the slices were then isolated in Eagle's medium with Earle's salts medium (MEM) on ice and then placed on Millipore Millicell-CM™ organotypic culture inserts in pre-warmed medium containing MEM, Earle's balanced salt solution, heat-inactivated horse serum, GlutaMAX™, Fungizone®, and penicillin-streptomycin (each from Invitrogen), and glucose (Sigma). […]\nAfter 3-4 days treatment of MPP^+ together with BHDPC, slices were fixed with 4% paraformaldehyde and then stained by immunohistochemistry. […] Three to four separate slice isolations (about 4-5 pups/isolation) were used, with 3-5 slices analysed from each isolation for each factor and dose.\nSlices were fixed with 4% paraformaldehyde at room temperature for 1 hour, blocked with 5% donkey serum, 0.3% Triton™ X-100, and then incubated in primary antibodies for 2 days at 4° C. […] Confocal z-stacks were acquired (at 1.3 μm intervals and 10-15 images were acquired per stack) with a Leica SPE confocal microscope and images analysed using NIH ImageJ. […]"}}, "note": "Entries after “also recorded” stand apart in the source; their conditions may differ.", "data": [{"smiles": "COc1cc(C2C(C(=O)OCc3ccccc3)=C(C)Nc3nnnn32)ccc1O", "note": "(stereo not shown) [BHDPC, benzyl 7-(4-hydroxy-3-methoxyphenyl)-5-methyl-4,7-dihydrotetrazolo[1,5-a]pyrimidine-6-carboxylate]", "values": [{"measurement": "MPP+-induced LDH leakage", "setting": "SH-SY5Y cells [1]; 3 μM", "value": 200, "unit": "%"}, {"measurement": "MPP+-induced LDH leakage", "setting": "SH-SY5Y cells [1]; 10 μM", "value": 184, "unit": "%"}, {"measurement": "MPP+-induced LDH leakage", "setting": "SH-SY5Y cells [1]; 30 μM", "value": 170, "unit": "%"}, {"measurement": "cytotoxicity (cell viability, MTT)", "setting": "SH-SY5Y cells [2]", "value": "did not cause any cytotoxicity"}, {"measurement": "MPP+-induced caspase 3 activation", "setting": "caspase 3; 30 μM pre-treatment, 2 mM MPP+ 36 h", "value": "significantly reduced; also recorded: attenuated"}, {"measurement": "caspase 3 activity", "setting": "caspase 3; BHDPC alone, without MPP+", "value": "did not affect caspase 3 activity"}, {"measurement": "level of microtubule-associated protein (MAP2)", "setting": "primary cortical neurons", "value": "increase levels"}, {"measurement": "level of α-tubulin", "setting": "primary cortical neurons", "value": "increase levels"}, {"measurement": "MPP+-induced CNS cells death and neurons death in brain slices", "setting": "cerebellar tissue slices", "value": "prevented MPP^+-induced neuronal death"}, {"measurement": "MPP+-induced CNS cells death and neurons death in brain slices", "setting": "cerebellar tissue slices; listed as BHDPCs", "value": "attenuated"}]}]}
